For test [1], the target named is Human immunodeficiency virus type 1 protease (Human immunodeficiency virus 1) (UniProt Q72874). Put plainly: Kinetic parameter (kina) value was determined for the compound.
The target in test [2] is Human immunodeficiency virus type 1 protease (Human immunodeficiency virus 1, UniProt Q72874). The experiment in a line: Inhibitory activity against HIV protease was determined.
In a further test the target is Cathepsin D (Homo sapiens, UniProt P07339). Put plainly: Inhibitory activity against human cathepsin D was determined.

Structures are written as SMILES.

Sequence of Cathepsin D (P07339 65-162 limits assumed): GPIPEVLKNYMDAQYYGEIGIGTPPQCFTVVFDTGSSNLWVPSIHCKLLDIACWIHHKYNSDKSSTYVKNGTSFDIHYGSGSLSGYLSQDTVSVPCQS
Sequence of Cathepsin D (P07339 169-412 limits assumed): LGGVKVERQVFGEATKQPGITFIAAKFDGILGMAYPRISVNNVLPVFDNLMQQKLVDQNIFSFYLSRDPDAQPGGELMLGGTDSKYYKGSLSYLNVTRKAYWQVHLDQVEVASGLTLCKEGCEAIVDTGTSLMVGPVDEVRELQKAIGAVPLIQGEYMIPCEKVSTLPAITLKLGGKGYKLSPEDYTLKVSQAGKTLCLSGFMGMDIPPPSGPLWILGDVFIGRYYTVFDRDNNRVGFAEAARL

`CC(C)C(NC(=O)C[C@H]1O[C@H]1[C@H](Cc1ccccc1)NC(=O)OCc1ccccc1)C(=O)O` (stereo partly specified) showed a Kina in test [1] of 1.48 min⁻¹. This molecule also registered an inhibition constant (Ki) in test [2] of 1.32 µM.

Regarding `CC(C)C(NC(=O)C[C@@H]1O[C@@H]1[C@H](Cc1ccccc1)NC(=O)C(CC(N)=O)NC(=O)c1ccc2ccccc2n1)C(C)C` (stereo partly specified), it took 12.5 µM to reach half-maximal inhibition against Cathepsin D (IC50). In test [1], this molecule registered a Kina of 0.2 min⁻¹. The molecule also gave an inhibitory constant (Ki) in test [2] of 0.001 µM.

As to `CC(C)C(NC(=O)[C@@H]1O[C@@H]1[C@H](Cc1ccccc1)NC(=O)OCc1ccccc1)C(=O)O` (stereo partly specified), the Kina in test [1] came out at 0.02 min⁻¹. Further, the inhibition constant Ki in test [2] was above 10000 µM.

For `CC(C)C(NC(=O)C[C@H]1O[C@@H]1[C@H](Cc1ccccc1)NC(=O)OCc1ccccc1)C(=O)O` (stereo partly specified), the Kina in test [1] was 0.2 min⁻¹. Moreover, the affinity in test [2], expressed as Ki, was 200 µM.

Turning to `CCC(C)C(NC(=O)C[C@H]1O[C@H]1[C@H](Cc1ccccc1)NC(=O)C(CC(N)=O)NC(=O)c1ccc2ccccc2n1)C(=O)O` (mixture of isomers), the Kina in test [1] is 0.22 min⁻¹. Further, in test [2], the Ki worked out at 0.018 µM.

Source of the values: ChEMBL document CHEMBL1128990, “Design, synthesis, and characterization of dipeptide isostere containing cis-epoxide for the irreversible inactivation of HIV protease” (Bioorg Med Chem Lett, 1996).
